Reference: ChEMBL document CHEMBL1156456, “Insights into the mechanism of partial agonism: crystal structures of the peroxisome proliferator-activated receptor gamma ligand-binding domain in the complex with two enantiomeric ligands” (J Biol Chem, 2007)

Key:
[1] = Activation of PPARgamma I472A mutant-mediated transcriptional activity assessed as Gal4 reporter activity
[2] = Activation of PPARgamma L469A mutant-mediated transcriptional activity assessed as Gal4 reporter activity
[3] = Activation of PPARgamma Q286G mutant-mediated transcriptional activity assessed as Gal4 reporter activity
[4] = Activation of PPARgamma L465A mutant-mediated transcriptional activity assessed as Gal4 reporter activity

- EC50 [1]: > 10 µM
- EC50 [2]: > 10 µM
- EC50 [3]: 0.207 µM
- EC50 [4]: > 10 µM
SMILES: CN(CCOc1ccc(CC2SC(=O)NC2=O)cc1)c1ccccn1 (centres undefined) [ROSIGLITAZONE]
